# Test results taken from US20130005696A1, “BUFADIENOLIDE DERIVATIVES, PREPARING PROCESS THEREOF, COMPOSITION COMPRISING THE SAME AND THE USE THEREOF” (priority 2011, published 2013).
# Experiments:
# Type in all cases: in vivo, Balb/c nude mice
# [1] = test system: human-derived leukaemia MV-4-11 xenograft; test: Therapeutic effect against MV-4-11 xenograft in nude mice; settings: for Inhibition Rate (%): 4 mg/kg
# Protocol: (§1) This experiment is to investigate the in vivo inhibitory effect of II1E-01.HCl on growth of human-derived hepatic carcinoma HepG2 cell, human-derived breast carcinoma MDA-MB-231 cell, human-derived lung carcinoma H460 cell, human-derived colon carcinoma HCT-116 cell, human-derived […] MV-4-11 cell xenografts in nude mice.
# (§2) Formulation of solvent control (5% anhydrous ethanol & 5% aqueous glucose solution): 2.5 mL anhydrous ethanol was added into a 50 mL tube, followed by addition of 47.5 mL 5% glucose solution for injection followed by shaking, and stored at room temperature before use.
# (§3) Formulation of the preparations of the compounds to be tested: formulations with concentrations of 0.4 mg/mL and 0.6 mg/mL were prepared respectively. An appropriate amount of II1E-01.HCl was weighted and put into a 50 mL tube, followed by addition of corresponding volume of solvent to get the desired concentration and mixed using a vortex mixer. After the solid was dissolved completely, the solution was subpackaged into 4 mL vials and stored at refrigerated condition (2-8° C.) until use.
# (§4) Experimental animals: Balb/c nude mice (male, six weeks old).
# MV-4-11 cells were in vitro cultured to be proliferated. The cells in the log phase of growth were collected and resuspended in IMDM serum-free medium, and then implanted subcutaneously into the axilla of the right forelimb of nude mice. After 37 days, the tumor size reached about 270 mm^3. The mice bearing the tumor were grouped by randomized block method according to the tumor size into 3 groups, which contain 6 mice in each group and include the group of solvent control, group of positive control (Sunitinib 40 mg/kg), and group of the testing compound II1E-01.HCl (4 mg/kg QOD). In the positive control group, sunitinib was administered intragastrically once daily (QD). In the group of II1E-01.HCl, II1E-01.HCl was administered intravenously at tail once every other day (QOD). The animals were given the drugs for 21 days, during which the growth of tumor and the body weight of the mice were observed.
# After continuously administering for 21 days (the 58th day after the implantation), the tumor weight and inhibition rate were calculated, and results are listed in Table 9. […] In the group of the testing compound II1E-01.HCl (4 mg/kg QOD), the tumor also completely disappeared at 14th day after administration, and the inhibition rate was 100.00% (P<0.01) at the end of the experiment.
# [2] = test system: human hepatic carcinoma HepG2 xenograft; test: Therapeutic effect against HepG2 xenograft in nude mice; settings: QOD × 14 d
# Protocol: as §1, §2, §3, §4
# HepG2 cells were in vitro cultured to be proliferated. The cells in the log phase of growth were collected and resuspended in DMEM serum-free medium, and then implanted subcutaneously into the axilla of the right forelimb of nude mice. After 11 days, the tumor size reached about 250 mm^3. The mice bearing the tumor were grouped according to the tumor size into 6 groups, including the group of solvent control, groups of positive controls (Rapamycin 10 mg/kg and Vinorelbine 8 mg/kg), and groups of low (2 mg/kg), middle (4 mg/kg) and high (6 mg/kg) dosages of the testing compound II1E-01.HCl. Each group was administered intravenously at tail. In the solvent control group, the solvent control solution was administered intravenously once every other day (QOD). In the low, middle and high dosage groups of II1E-01.HCl, II1E-01.HCl was administered intravenously once every other day (QOD). In the positive control groups, Rapamycin 10 mg/kg and Vinorelbine 8 mg/kg were administered once a week (QW). The animals were given the drugs for two weeks. In the two week time period, the growth of tumor and the body weight of the mice were observed.
# Two weeks after administering (the 25th day after the implantation), the tumor weight and inhibition rate were calculated, and results are listed in Table 5.
# [3] = test system: human-derived breast carcinoma MDA-MB-231 xenograft; test: Therapeutic effect against MDA-MB-231 xenograft in nude mice; settings: QOD × 7 d
# Protocol: as §1, §2, §3, §4
# 19 days after MDA-MB-231 cells were implanted, the tumor size reached about 617 mm^3. The mice bearing the tumor were grouped and administered. The groups of II1E-01.HCl were administered once every other day (QOD), and the solvent control group was administered with the solvent control solution. After completion of the experiment, the tumor weight and the inhibition rate were calculated, and the results are summarized in Table 6. The high and middle dosage groups have significant inhibitory activities against the growth of MDA-MB-231 xenograft, and the effect depends on the amount obviously.
# The tumor in this experiment had been allowed to grow to reach a relative bigger size before drug administration (the tumor size before drug administration was about 600 mm^3 while generally the tumor size was only 200-300 mm^3 before drug administration), which corresponds to a middle- or advanced-stage cancer.
smiles,measurement,setting,value
C[C@]12CC[C@H](OC(=O)NC3CCNCC3)C[C@H]1CC[C@@H]1[C@@H]2CC[C@]2(C)[C@@H](c3ccc(=O)oc3)CC[C@]12O.Cl [II1E-01•HCl],day after administration at which the tumor completely disappeared,[1]; 4 mg/kg iv QOD,14 days
same,Tumor Weight(g) Mean ± SE,"[1]; 4 mg/kg iv, QOD × 21 d",0.0000 ± 0.0000 g
same,Inhibition Rate (%),"[1]; 4 mg/kg iv, QOD × 21 d",100.00%
same,Inhibition Rate (%),"[1]; 4 mg/kg iv, QOD × 21 d, listed as II1E-01.HCl",100.00%
same,Tumor Weight(g) Mean ± SE,[2]; 2 mg/kg iv,0.3177 ± 0.0410 g
same,Inhibition Rate (%),"[2]; 2 mg/kg iv, 2 mg/kg",58.50%
same,Inhibition Rate (%),"[2]; 2 mg/kg iv, listed as II1E-01.HCl, 2 mg/kg",58.50%
same,Tumor Weight(g) Mean ± SE,[2]; 4 mg/kg iv,0.0938 ± 0.0121 g
same,Inhibition Rate (%),"[2]; 4 mg/kg iv, 4 mg/kg",87.75%
same,Inhibition Rate (%),"[2]; 4 mg/kg iv, listed as II1E-01.HCl, 4 mg/kg",87.75%
same,Tumor Weight(g) Mean ± SE,[2]; 6 mg/kg iv,0.0262 ± 0.0054 g
same,Inhibition Rate (%),"[2]; 6 mg/kg iv, 6 mg/kg",96.58%
same,Inhibition Rate (%),"[2]; 6 mg/kg iv, listed as II1E-01.HCl, 6 mg/kg",96.58%
same,Inhibition Rate (%),[3]; 2 mg/kg iv,16.36%
same,Tumor Weight(g) Mean ± SE,[3]; 2 mg/kg iv,2.6063 ± 0.2731 g
same,Inhibition Rate (%),[3]; 4 mg/kg iv,33.99%
same,Tumor Weight(g) Mean ± SE,[3]; 4 mg/kg iv,2.0569 ± 0.1340 g
same,Inhibition Rate (%),[3]; 6 mg/kg iv,52.23%
same,Tumor Weight(g) Mean ± SE,[3]; 6 mg/kg iv,1.4887 ± 0.1763 g
